According to patent US20240109864A1, “SUBSTITUTED PYRAZOLYL PIPERIDINE CARBOXYLIC ACIDS” (BAYER AKTIENGESELLSCHAFT, priority 2020, published 2024):
Where a name gives a salt, the structure may show the parent alone.

Biological target: T1, recombinant guanylate cyclase reporter cell line (Rattus norvegicus, UniProt P20595)
T1 construct: expressed in transfected cells
T1 sequence (P20595 1-619): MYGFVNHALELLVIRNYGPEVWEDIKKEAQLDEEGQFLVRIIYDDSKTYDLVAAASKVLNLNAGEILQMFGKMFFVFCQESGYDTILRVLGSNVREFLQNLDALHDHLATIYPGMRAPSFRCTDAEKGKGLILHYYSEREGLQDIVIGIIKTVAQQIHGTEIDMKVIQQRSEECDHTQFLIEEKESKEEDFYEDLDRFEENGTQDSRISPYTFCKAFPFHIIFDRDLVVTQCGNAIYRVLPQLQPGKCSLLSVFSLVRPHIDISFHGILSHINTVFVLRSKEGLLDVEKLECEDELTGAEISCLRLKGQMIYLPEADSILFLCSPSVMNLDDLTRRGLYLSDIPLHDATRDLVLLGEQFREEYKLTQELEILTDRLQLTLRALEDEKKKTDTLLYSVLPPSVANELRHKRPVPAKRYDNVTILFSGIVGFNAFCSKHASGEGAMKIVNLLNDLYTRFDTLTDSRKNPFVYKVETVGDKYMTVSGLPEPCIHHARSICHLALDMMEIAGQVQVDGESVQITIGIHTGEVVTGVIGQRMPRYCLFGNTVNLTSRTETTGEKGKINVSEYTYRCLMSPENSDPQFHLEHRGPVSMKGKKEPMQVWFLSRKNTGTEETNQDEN
T1 sequence (P19686 1-690 partner): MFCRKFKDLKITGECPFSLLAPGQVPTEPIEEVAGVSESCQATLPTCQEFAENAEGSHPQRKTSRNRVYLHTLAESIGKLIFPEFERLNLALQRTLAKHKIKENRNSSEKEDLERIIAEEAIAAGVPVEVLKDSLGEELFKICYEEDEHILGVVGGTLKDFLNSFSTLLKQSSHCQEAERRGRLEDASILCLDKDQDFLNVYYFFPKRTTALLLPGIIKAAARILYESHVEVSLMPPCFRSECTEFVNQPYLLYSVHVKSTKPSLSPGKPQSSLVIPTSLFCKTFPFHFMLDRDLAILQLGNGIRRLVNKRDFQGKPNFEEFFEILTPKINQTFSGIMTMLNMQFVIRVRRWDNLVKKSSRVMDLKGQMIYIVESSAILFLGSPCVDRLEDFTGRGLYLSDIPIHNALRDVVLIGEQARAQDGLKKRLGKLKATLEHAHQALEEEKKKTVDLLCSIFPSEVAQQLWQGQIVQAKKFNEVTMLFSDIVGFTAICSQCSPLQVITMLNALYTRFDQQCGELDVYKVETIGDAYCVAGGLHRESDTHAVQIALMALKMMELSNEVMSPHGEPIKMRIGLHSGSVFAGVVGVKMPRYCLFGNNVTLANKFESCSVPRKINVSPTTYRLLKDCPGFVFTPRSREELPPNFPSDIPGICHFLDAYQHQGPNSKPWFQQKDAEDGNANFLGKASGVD
Assay: Effect on a recombinant guanylate cyclase reporter cell line
Format: cell-based
Conditions: in some cases mean values from individual determinations; for MEC: MEC = minimum effective concentration; for EC50: half maximal effective concentration
Experimental: The cellular activity of the compounds according to the invention was determined using a recombinant guanylate cyclase reporter cell line, as described in F. Wunder et al., Anal. Biochem. 339, 104-112 (2005).

MEC [nM]	EC50 [nM]	MEC (hydrochloride) [nM]	SMILES
3.0	26.5		O=C(O)c1cnn(C2CCCN(c3cc(Cl)ccc3-c3ccc(N4CCN(CC5CCC5)CC4)cc3)C2)c1C(F)(F)F (single isomer, unassigned) [Example 19, 1-[1-[5-Chloro-2-[4-[4-(cyclobutylmethyl)piperazin-1-yl]phenyl]phenyl]-3-piperidyl]-5-(trifluoromethyl)pyrazole-4-carboxylic acid hydrochloride]
	3.6	1.0	O=C(O)c1cnn(C2CCCN(c3cc(Cl)ccc3-c3ccc(N4CCN(CC5CC(F)(F)C5)CC4)cc3)C2)c1C(F)(F)F (single isomer, unassigned) [Example 20, 1-[1-[5-Chloro-2-[4-[4-[(3,3-difluorocyclobutyl)methyl]piperazin-1-yl]phenyl]phenyl]-3-piperidyl]-5-(trifluoromethyl)pyrazole-4-carboxylic acid hydrochloride]
	27	3.0	O=C(O)c1cnn(C2CCCN(c3cc(Cl)ccc3-c3ccc(N4CCN(CC5CC(F)(F)C5)CC4)cc3)C2)c1C(F)(F)F (single isomer, unassigned) [Example 21, 1-[1-[5-Chloro-2-[4-[4-[(3,3-difluorocyclobutyl)methyl]piperazin-1-yl]phenyl]phenyl]-3-piperidyl]-5-(trifluoromethyl)pyrazole-4-carboxylic acid hydrochloride]
2.0	11.4		O=C(O)c1cnn(C2CCCN(c3cc(Cl)ccc3-c3ccc(N4CCN(CC5CC(F)C5)CC4)cc3)C2)c1C(F)(F)F (single isomer, unassigned) [Example 22, 1-[1-[5-Chloro-2-[4-[4-[(3-fluorocyclobutyl)methyl]piperazin-1-yl]phenyl]phenyl]-3-piperidyl]-5-(trifluoromethyl)pyrazole-4-carboxylic acid hydrochloride]
3.0	27.5		O=C(O)c1cnn(C2CCCN(c3cc(Cl)ccc3-c3ccc(N4CCN(CC5(F)CCC5)CC4)cc3)C2)c1C(F)(F)F (single isomer, unassigned) [Example 23, 1-[1-[5-Chloro-2-[4-[4-[(1-fluorocyclobutyl)methyl]piperazin-1-yl]phenyl]phenyl]-3-piperidyl]-5-(trifluoromethyl)pyrazole-4-carboxylic acid hydrochloride]
3.0	12.7		O=C(O)c1cnn(C2CCCN(c3cc(Cl)ccc3-c3ccc(N4CCN(CC56CC(F)(C5)C6)CC4)cc3)C2)c1C(F)(F)F (single isomer, unassigned) [Example 24, 1-[1-[5-Chloro-2-[4-[4-[(3-fluoro-1-bicyclo[1.1.1]pentanyl)methyl]piperazin-1-yl]phenyl]phenyl]-3-piperidyl]-5-(trifluoromethyl)pyrazole-4-carboxylic acid hydrochloride]
	22	10.0	O=C(O)c1cnn(C2CCCN(c3cc(Cl)ccc3-c3ccc(N4CCN(CC5CC5F)CC4)cc3)C2)c1C(F)(F)F (single isomer, unassigned) [Example 25, 1-[1-[5-Chloro-2-[4-[4-[[2-fluorocyclopropyl]methyl]piperazin-1-yl]phenyl]phenyl]-3-piperidyl]-5-(trifluoromethyl)pyrazole-4-carboxylic acid hydrochloride]
	5.2	1.0	O=C(O)c1cnn(C2CCCN(c3cc(Cl)ccc3-c3ccc(N4CCN(CC5CC5F)CC4)cc3)C2)c1C(F)(F)F (single isomer, unassigned) [Example 26, 1-[1-[5-Chloro-2-[4-[4-[[2-trans-fluorocyclopropyl]methyl]piperazin-1-yl]phenyl]phenyl]-3-piperidyl]-5-(trifluoromethyl)pyrazole-4-carboxylic acid hydrochloride]
3.0	15		O=C(O)c1cnn(C2CCCN(c3cc(Cl)ccc3-c3ccc(N4CCN(CC5C[C@@H]5F)CC4)cc3)C2)c1C(F)(F)F (single isomer, unassigned) [Example 27, 1-[1-[5-Chloro-2-[4-[4-[[2-fluorocyclopropyl]methyl]piperazin-1-yl]phenyl]phenyl]-3-piperidyl]-5-(trifluoromethyl)pyrazole-4-carboxylic acid hydrochloride]
	5.5	3.0	O=C(O)c1cnn(C2CCCN(c3cc(Cl)ccc3-c3ccc(N4CCN(C[C@@H]5C[C@@H]5F)CC4)cc3)C2)c1C(F)(F)F (single isomer, unassigned) [Example 28, hydrochloride]
0.3	6.9		O=C(O)c1cnn(C2CCCN(c3cc(Cl)ccc3-c3ccc(N4CCN(C[C@H]5C[C@H]5F)CC4)cc3)C2)c1C(F)(F)F (single isomer, unassigned) [Example 29, hydrochloride]
3.0	8.9		O=C(O)c1cnn(C2CCCN(c3cc(Cl)ccc3-c3ccc(N4CCN(CC5CC56CC6)CC4)cc3)C2)c1C(F)(F)F (single isomer, unassigned) [Example 30, 1-[1-[5-Chloro-2-[4-[4-(spiro[2.2]pentan-2-ylmethyl)piperazin-1-yl]phenyl]phenyl]-3-piperidyl]-5-(trifluoromethyl)pyrazole-4-carboxylic acid hydrochloride]
	9.3	3.0	O=C(O)c1cnn(C2CCCN(c3cc(Cl)ccc3-c3ccc(N4CCN(CC5CC5C(F)(F)F)CC4)cc3)C2)c1C(F)(F)F (single isomer, unassigned) [Example 32, 1-[1-[5-Chloro-2-[4-[4-[[2-(trifluoromethyl)cyclopropyl]methyl]piperazin-1-yl]phenyl]phenyl]-3-piperidyl]-5-(trifluoromethyl)pyrazole-4-carboxylic acid hydrochloride]
	37.5	10.0	O=C(O)c1cnn(C2CCCN(c3cc(Cl)ccc3-c3ccc(N4CCN(CC5CC5C(F)(F)F)CC4)cc3)C2)c1C(F)(F)F (single isomer, unassigned) [Example 33, 1-[1-[5-Chloro-2-[4-[4-[[2-(trifluoromethyl)cyclopropyl]methyl]piperazin-1-yl]phenyl]phenyl]-3-piperidyl]-5-(trifluoromethyl)pyrazole-4-carboxylic acid hydrochloride]
10.0	40.5		O=C(O)c1cnn(C2CCCN(c3cc(Cl)ccc3-c3ccc(N4CCN(CC5(C(F)(F)F)CC5)CC4)cc3)C2)c1C(F)(F)F (single isomer, unassigned) [Example 34, 1-[1-[5-Chloro-2-[4-[4-[[1-(trifluoromethyl)cyclopropyl]methyl]piperazin-1-yl]phenyl]phenyl]-3-piperidyl]-5-(trifluoromethyl)pyrazole-4-carboxylic acid hydrochloride]
3.0	17.5		O=C(O)c1cnn(C2CCCN(c3cc(Cl)ccc3-c3ccc(N4CCN(CCOC(F)(F)F)CC4)cc3)C2)c1C(F)(F)F (single isomer, unassigned) [Example 35, 1-[1-[5-Chloro-2-[4-[4-[2-(trifluoromethoxy)ethyl]piperazin-1-yl]phenyl]phenyl]-3-piperidyl]-5-(trifluoromethyl)pyrazole-4-carboxylic acid hydrochloride]
10.0	35.5		CC(=O)N1CCN(c2ccc(-c3ccc(Cl)cc3N3CCCC(n4ncc(C(=O)O)c4C(F)(F)F)C3)cc2)CC1 (single isomer, unassigned) [Example 36, 1-[1-[2-[4-(4-Acetylpiperazin-1-yl)phenyl]-5-chloro-phenyl]-3-piperidyl]-5-(trifluoromethyl)pyrazole-4-carboxylic acid]
3.0	15.5		CCC(=O)N1CCN(c2ccc(-c3ccc(Cl)cc3N3CCCC(n4ncc(C(=O)O)c4C(F)(F)F)C3)cc2)CC1 (single isomer, unassigned) [Example 37, 1-[1-[5-Chloro-2-[4-(4-propanoylpiperazin-1-yl)phenyl]phenyl]-3-piperidyl]-5-(trifluoromethyl)pyrazole-4-carboxylic acid]
